Here are results for three compounds from PMC2858875 (Chemistry & biology, 2010).

Series [1] deals with M-CSF stimulated Ser473 p-Akt production in THP-1 monocytes. Kind of series: THP-1 signaling assay, M-CSF stimulated Ser473 p-Akt. To be noted: 50ng/mL CSF-1 for 7 minutes, FACS. Type of series: cell-based.
Series [2] deals with MCP-1 stimulated Ser473 p-Akt production in THP-1 monocytes. Kind of series: THP-1 signaling assay, MCP-1 stimulated Ser473 p-Akt. As to conditions: 100nM MCP-1 for 5 minutes, FACS. Type of series: cell-based.
For series [3], the system named is all PI3K isoforms. As to conditions: at 300nM; ref Camps et al., 2005; cited from earlier work.
The target of series [4] is T1, PI3Kδ (Homo sapiens, UniProt O00329).
T1 sequence (O00329 1-1044): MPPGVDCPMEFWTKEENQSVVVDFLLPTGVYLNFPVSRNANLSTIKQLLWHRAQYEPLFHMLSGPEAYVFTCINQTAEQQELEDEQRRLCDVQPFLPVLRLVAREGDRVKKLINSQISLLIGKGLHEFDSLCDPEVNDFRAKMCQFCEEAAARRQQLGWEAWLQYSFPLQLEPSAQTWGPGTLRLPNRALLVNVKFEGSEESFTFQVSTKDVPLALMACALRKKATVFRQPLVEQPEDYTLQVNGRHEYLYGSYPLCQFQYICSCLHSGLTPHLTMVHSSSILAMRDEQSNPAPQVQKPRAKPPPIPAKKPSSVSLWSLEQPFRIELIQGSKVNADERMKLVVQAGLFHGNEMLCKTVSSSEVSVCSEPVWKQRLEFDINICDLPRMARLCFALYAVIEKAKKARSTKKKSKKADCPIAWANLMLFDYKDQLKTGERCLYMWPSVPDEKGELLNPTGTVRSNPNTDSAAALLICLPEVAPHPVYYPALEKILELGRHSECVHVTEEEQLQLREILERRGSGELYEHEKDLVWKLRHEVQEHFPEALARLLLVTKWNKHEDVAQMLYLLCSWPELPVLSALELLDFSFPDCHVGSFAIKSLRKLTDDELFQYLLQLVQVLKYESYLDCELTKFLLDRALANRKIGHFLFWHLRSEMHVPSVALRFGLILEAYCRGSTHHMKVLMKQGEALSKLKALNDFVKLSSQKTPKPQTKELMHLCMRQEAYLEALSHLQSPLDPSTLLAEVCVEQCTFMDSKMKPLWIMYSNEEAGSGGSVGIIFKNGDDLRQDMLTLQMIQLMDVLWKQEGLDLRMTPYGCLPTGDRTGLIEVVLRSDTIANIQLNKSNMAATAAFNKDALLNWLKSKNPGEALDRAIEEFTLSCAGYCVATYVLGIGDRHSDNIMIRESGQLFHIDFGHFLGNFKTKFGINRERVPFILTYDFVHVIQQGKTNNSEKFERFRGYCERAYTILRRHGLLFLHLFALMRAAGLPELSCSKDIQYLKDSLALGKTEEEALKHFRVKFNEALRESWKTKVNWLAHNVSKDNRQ
Kind of series: Class I PI3K kinase assay. As to conditions: biochemical assay, 10μM ATP.

Series [5] deals with HUVECs.
Series [6] relates to PBMC/HUVEC co-culture. Format: cell-based, human.
In series [7] the test system is PBMC/HUVEC co-culture.

Each structure is given as a SMILES string. A value given as a limit tells only on which side of the number the result lay.

As for `O=C1NC(=O)/C(=C\c2ccc3nccnc3c2)S1` [AS605240], in series [1], the “block of M-CSF stimulated Ser473 p-Akt production” value is “ineffective”. The “block of MCP-1 stimulated Ser473 p-Akt production” value in series [2] is recorded as “blocked”. Also, in series [3], the “inhibition of all PI3K isoforms” value was “inhibits all PI3K isoforms”. Further, in series [4], the “potency against PI3Kδ (in words)” value was “do not significantly inhibit PI3Kδ at the doses tested”.

Take `Cc1ccccc1-n1c(Cn2cnc3c(N)ncnc32)nc2cccc(C)c2c1=O` [IC87114]: in series [5] (3C system), the “E-selectin expression in directly stimulated HUVECs” value is given as “did not inhibit E-selectin expression”.

Consider `COc1ccc2c(c1OC)N=C(NC(=O)c1cccnc1)N1CCN=C21` [PIK90], for which, in series [6], the CCL2/MCP-1 production entry is recorded as “modest effects”, the CD38 production result is “modest effects” and the PBMC proliferation result is reported as “decrease”. For the same compound, the “HUVEC viability: sulforhodamine B (SRB) protein binding” value in series [5] was less than -0.3 log ratio. For the same compound, in series [5] (3C system), the HLA-DR level result is listed as “strongly inhibited” and the “urokinase receptor (CD87/uPAR) level” value is “strongly inhibited”. The HUVEC proliferation entry in series [5] (HUVEC-only culture) is “inhibited HUVEC proliferation”. In series [7], the cell viability entry is “little effect”. Further, the CD40 level result in series [7] (LPS system) is reported as “significantly reduced”.
